One series deals with T1, tau aggregation (Homo sapiens, UniProt P10636).
T1 construct: expressed in transfected cells; host or cells: E. coli BL21 (DE3) bearing pTARA and pRKT42
Briefly: Tau aggregation inhibition in genetically modified E. coli cells (Th-S fluorescence). In kind it is cell-based, Escherichia coli. The conditions noted are these: live E. coli cells overexpressing tau; for inhibition at 10 µM: read-out: Tau Aggregation % inh. @10 µM. The protocol: For tau overexpression, M9 minimal medium (10 mL) containing glucose (0.5%), ampicillin (50 μg/mL), chloramphenicol (12.5 μg/mL), and E. coli BL21 (DE3) cells bearing the pTARA plasmid, which carries the RNA polymerase gene of the T7 phage (T7RP) under control of the PBAD promoter, and subsequent transformation with the pRKT42 vector were used instead. In this case, the overnight culture for a 1:500 dilution was added to fresh M9 minimal medium containing glucose (0.5%), chloramphenicol (12.5 μg/mL), ampicillin (50 μg/mL), and Th-S (250 µM).
(§1) For Aβ42 overexpression, the corresponding E. coli cell cultures were kept growing overnight (37 °C; 250 rpm) until they reached an OD600 = 0.6. These cultures (980 μL) were added to a mixture of 10 μL of a solution of the new compounds in DMSO and 10 μL of 100 mM isopropyl 1-thio-β-D-galactopyranoside (IPTG), to reach a final compound concentration of 10 μM. The same procedure was used for tau overexpression but employing 10 μL of 25% arabinose instead of IPTG. The resulting E. coli cultures were kept growing overnight (37 °C; 1400 rpm) using an Eppendorf Thermomixer (Hamburg, Germany). To prepare a negative control for the assay, showing the highest amount of the amyloidogenic protein, the same quantity of DMSO, without the compounds to be tested, was added to the sample. With the double purpose of obtaining positive controls devoid of the amyloidogenic proteins and assessing the potential intrinsic toxicity of the new compounds, we also prepared samples that had not been treated with either IPTG or arabinose (non-induced samples).
(§2) To assess the inhibitory activity of compounds 4–7 on Aβ42 and tau aggregation within E. coli cells, a fluorescence assay was employed, using Th-S ([…] stock solution, T1892, Sigma, St. Louis, MO, USA) in double-distilled water (Milli-Q system, Millipore, Bay City, MI, USA) and an Aminco Bowman Series 2 luminescence spectrophotometer (Aminco-Bowman AB2, SLM Aminco, Rochester, NY, USA), working at 25 °C in the wavelength range of 460–600 nm, with λex = 445 nm, slit widths of 4 nm, and λem = 485 nm. The results are given as the average of nine independent experiments, each performed in triplicate.

In series [1] the target is T2, human recombinant BACE-1 (hBACE-1) (Homo sapiens, UniProt P56817).
T2 construct: purchased Invitrogen, Carlsbad, CA, USA
Briefly: In vitro hBACE-1 inhibition (fluorometric method). In kind it is biochemical. The conditions noted are these: for inhibition at 15 µM: read-out: hBACE-1 % inh. @15 µM. The protocol:
The inhibition of human recombinant BACE-1 (hBACE-1) (Invitrogen, Carlsbad, CA, USA) by hybrids 4–7 was evaluated by a fluorometric method. The substrate (Panvera peptide, 10 μL, 250 nM final concentration) was added to a solution (10 μL) of hybrids 4–7 or buffer in control wells (20 mM sodium acetate at pH 4.5, with 0.1% w/v CHAPS). After the addition of the enzyme (10 μL, 12.91 mU), the assay solution was incubated for 1 h at 37 °C. Thereafter, STOP solution (10 μL, 2.5 M sodium acetate) was added and the fluorescence was read at […]. The DMSO concentration in the assay solution was kept <5% (v/v) to ensure no significant loss of BACE-1 activity. The background signal, determined in control wells with all the components of the assay but BACE-1, was subtracted. The fluorescence intensities in the presence of increasing concentrations or in the absence of hybrids 4–7 were compared to calculate the percent of enzyme inhibition produced by the compounds, by applying the following expression: 100 − (IFi/IFo × 100), in which IFi and IFo are the fluorescence intensities in the presence and in the absence of the compounds, respectively. Additionally, the IC50 values were calculated (GraphPad Prism 4.03 software, GraphPad Software Inc., San Diego, CA, USA) and are given as the mean ± SEM of at least two experiments, each performed in triplicate.

The next series addresses T3, Aβ42 aggregation (Homo sapiens, UniProt P05067).
T3 construct: expressed in transfected cells; host or cells: E. coli BL21 (DE3) bearing pET28a-Aβ42
Briefly: Aβ42 aggregation inhibition in genetically modified E. coli cells (Th-S fluorescence). In kind it is cell-based, Escherichia coli. The conditions noted are these: for inhibition at 10 µM: live E. coli cells overexpressing Aβ42, read-out: Aβ42 Aggregation % inh. @10 µM. Here is the method: For Aβ42 overexpression, M9 minimal medium (10 mL) containing kanamycin (50 μg/mL) was added to a colony of E. coli BL21 (DE3) competent cells, bearing the pET28a plasmid (Novagen, Inc., Madison, WI, USA), which contains the DNA sequence encoding for Aβ42. After overnight culture, the volume necessary to obtain a 1:500 dilution was added to fresh M9 minimal medium that contained kanamycin (50 μg/mL) and thioflavin-S (Th-S, 250 µM).
as §1, §2

Series [2] in a line: Fish embryo acute toxicity (FET) test in zebrafish embryos. The series is classed as in vivo. The conditions noted are these: in vivo, other: embryos exposed by immersion in the test solution, pH 7.4, 72 h of exposure, read-out: LC50 (CI95). The protocol:
Test solutions were freshly prepared for each experiment and were renewed every 24 h. The maximum tested compound concentration was 100 µM and four additional concentrations were also prepared by applying a 1:2 dilution factor. A 1% DMSO solution was used as a vehicle control.
Six-well plates were incubated at 26 ± 1 °C under a 14:10 light:dark cycle for 72 h. To assess the potential lethality of the new compounds, we followed, every 24 h, the four parameters that are outlined in the OECD Guideline No. 236: embryo coagulation, lack of somite formation, non-detachment of the tail, and absence of a heartbeat (from 48 h onward). The percentage of lethality at each concentration that was tested for the new compounds was recorded and expressed as mean ± SEM from three or more independent experiments. […] LOAEC values were determined through an ANOVA test with Bonferroni’s post-hoc test for multiple comparisons (significance threshold: p < 0.05).

Series [3] concerns the target T4, human recombinant AChE (hAChE) (Homo sapiens, UniProt P22303).
T4 construct: purchased Sigma (Milan, Italy)
Briefly: biochemical. The conditions noted are these: for IC50: human recombinant AChE, Ellman method, mean ± standard error; for AChE vs. BChE selectivity: hBChE IC50 relative to hAChE IC50.
Description: The stock and assay solutions were prepared as follows:
Stock hAChE solution: solution of the lyophilized powder in 0.1% Triton X-100/0.1 M potassium phosphate (pH 8.0).
Stock solutions of the new compounds: 1 mM solutions in methanol, with further dilutions in this solvent to the desired concentrations.

Series [4] is described as follows: Plasma stability, human plasma. In kind it is in vitro ADME. The following applies: 37 °C; for remaining at 1 h, 5 μM: read-out: Plasma Stability % Remaining Compound, human, 1 h; for remaining at 6 h, 5 μM: read-out: Plasma Stability % Remaining Compound, human, 6 h.
Description: The plasma stability of the new compounds was tested using in human, mouse, and rat plasma (Seralab). One hundred μL of 5 μM solutions of the new compounds in plasma were plated and incubated at 37 °C for 0, 60, 120, and 360 min, and then treated with 300 μL of acetonitrile and centrifuged (4000× g; 60 min; 4 °C). Sample quantification was performed by UPLC/MS/MS analysis of the resulting supernatant using a UPLC QSM Waters Acquity apparatus, equipped with a Waters ACQUITY BEH C18 1.7 μm 2.1 × 50 mm column, eluting with 0.1% formic acid in water or in acetonitrile, with a flow of 0.6 mL/min.
Compound concentration was calculated from the MS peak areas and expressed as the percentage of remaining compound at the different tested times.
Setting [5] is: compound at 15 µM (parenthesized values).

“And” between values parts separate entries of the source, which are not always exact repeats. Equal entries are not always repeated.

T3 sequence (P05067 672-713): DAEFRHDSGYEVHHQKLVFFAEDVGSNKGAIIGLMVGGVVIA
T2 sequence (P56817 46-501): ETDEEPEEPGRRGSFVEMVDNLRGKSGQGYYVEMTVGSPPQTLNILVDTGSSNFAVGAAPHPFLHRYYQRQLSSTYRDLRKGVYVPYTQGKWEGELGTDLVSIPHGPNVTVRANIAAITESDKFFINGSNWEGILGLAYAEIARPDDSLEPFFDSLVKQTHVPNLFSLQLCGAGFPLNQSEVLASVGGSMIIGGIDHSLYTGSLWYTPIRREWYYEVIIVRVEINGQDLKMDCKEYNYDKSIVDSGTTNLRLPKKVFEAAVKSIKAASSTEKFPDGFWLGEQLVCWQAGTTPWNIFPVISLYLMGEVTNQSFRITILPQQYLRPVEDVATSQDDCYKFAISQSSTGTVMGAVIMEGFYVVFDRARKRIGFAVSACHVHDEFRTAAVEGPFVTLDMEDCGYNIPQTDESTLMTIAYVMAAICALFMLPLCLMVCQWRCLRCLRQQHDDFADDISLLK
T4 sequence (P22303 32-614): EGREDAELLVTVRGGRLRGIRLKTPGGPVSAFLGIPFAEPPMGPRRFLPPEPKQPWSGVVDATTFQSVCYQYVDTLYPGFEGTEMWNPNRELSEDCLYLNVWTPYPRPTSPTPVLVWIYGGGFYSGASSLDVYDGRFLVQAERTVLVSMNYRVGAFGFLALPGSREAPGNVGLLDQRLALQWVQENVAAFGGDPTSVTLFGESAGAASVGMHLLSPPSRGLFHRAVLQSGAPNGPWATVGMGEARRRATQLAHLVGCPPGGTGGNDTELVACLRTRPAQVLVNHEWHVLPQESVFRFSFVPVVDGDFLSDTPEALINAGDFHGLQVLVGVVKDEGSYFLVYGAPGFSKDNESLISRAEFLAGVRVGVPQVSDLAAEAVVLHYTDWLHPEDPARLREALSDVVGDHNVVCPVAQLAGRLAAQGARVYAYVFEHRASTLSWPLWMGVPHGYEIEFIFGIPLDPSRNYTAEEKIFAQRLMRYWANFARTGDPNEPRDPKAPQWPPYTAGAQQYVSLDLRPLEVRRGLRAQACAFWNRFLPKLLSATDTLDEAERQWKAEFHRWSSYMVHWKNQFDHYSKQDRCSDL
T1 sequence (P10636 other isoform, or with tags, fused parts or gaps): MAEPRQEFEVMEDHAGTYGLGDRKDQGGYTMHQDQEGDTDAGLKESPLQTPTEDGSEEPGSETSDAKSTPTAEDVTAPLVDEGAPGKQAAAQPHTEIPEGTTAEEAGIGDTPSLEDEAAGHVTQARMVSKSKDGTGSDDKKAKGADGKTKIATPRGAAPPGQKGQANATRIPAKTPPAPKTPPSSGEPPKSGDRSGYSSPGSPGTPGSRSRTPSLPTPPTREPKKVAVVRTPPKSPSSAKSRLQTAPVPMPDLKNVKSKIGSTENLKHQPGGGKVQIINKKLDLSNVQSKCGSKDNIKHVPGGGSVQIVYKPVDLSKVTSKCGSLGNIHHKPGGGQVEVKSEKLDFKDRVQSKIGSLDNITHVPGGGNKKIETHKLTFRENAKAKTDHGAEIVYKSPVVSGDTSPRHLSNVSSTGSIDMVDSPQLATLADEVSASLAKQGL

As for `CC(=O)c1cccc(C(=O)NCCCCCCCCCNc2c3c(nc4cc(Cl)ccc24)CC2C=C(C)CC3C2)c1` (centres unmarked) [Compound 7, 3-Acetyl-N-{9-[(3-chloro-6,7,10,11-tetrahydro-9-methyl-7,11-methanocycloocta[b]quinolin-12-yl)amino]nonyl}benzamide], the “Tau Aggregation % inh. @10 µM” value at tau aggregation is 68.3 ± 3.1%. Further, the inhibition at 10 µM on tau aggregation was 68%; on Aβ42 aggregation, 73%. The half-inhibitory concentration (IC50) (in general, the point on the concentration scale where inhibition reaches its midpoint) in series [1] was not above 15000 nM; in series [3], 6 nM and 5.97 nM. Also, the “hBACE-1 % inh. @15 µM” value in series [1] (compound at 15 µM (parenthesized values), 15 µM) is listed as “(48.1 ± 0.3) %”. Moreover, the inhibition at 15 µM in series [1] (setting [5]) was 48%. Moreover, at Aβ42 aggregation (live E. coli cells overexpressing Aβ42), the “Aβ42 Aggregation % inh. @10 µM” value is given as 73.1 ± 4.8%. Besides, the LC50 (as a rule, the concentration that kills 50% of the test population) at 72 h in series [2] is more than 100000 nM. Besides, the share remaining (commonly the share of the starting amount still present when the sample was taken) at 1 h, 5 μM in series [4] is 100%. The fraction remaining at 6 h, 5 μM in series [4] (6 h) came to 100%.

As for `CC1=CC2Cc3nc4cc(Cl)ccc4c(NCCCCCCCCCNC(=O)c4cccc(C(=O)c5ccccc5)c4)c3C(C1)C2` (centres unmarked) [Compound 6, 3-Benzoyl-N-{9-[(3-chloro-6,7,10,11-tetrahydro-9-methyl-7,11-methanocycloocta[b]quinolin-12-yl)amino]nonyl}benzamide], the inhibition at 10 µM at tau aggregation turned out to be 62.5 ± 2.1%; at Aβ42 aggregation, 72.6 ± 2.7%. Besides, the 50% inhibitory concentration (IC50) in series [1] is not above 15000 nM; in series [3] it was 11.6 ± 0.9 nM. The inhibition at 15 µM in series [1] (setting [5]) is 61.5%. Also, in series [2], the LC50 at 72 h is 40100 nM. Further, in series [4], the amount remaining at 1 h, 5 μM is 100%. For the same compound, the amount remaining at 6 h, 5 μM in series [4] (6 h) was found to be 90.8%.

As for `CC1=CC2Cc3nc4cc(Cl)ccc4c(NCCCCCCCCCNC(=O)c4cc(O)c5c(c4)C(=O)c4cccc(O)c4C5=O)c3C(C1)C2` (centres unmarked) [Compound 3], the inhibition at 10 µM on tau aggregation worked out at 58.2 ± 1.8%; at Aβ42 aggregation it was 74.2 ± 1.6%. Besides, the half-maximal inhibitory concentration (IC50) in series [1] was 1500 ± 380 nM. In addition, the LC50 at 72 h in series [2] is more than 100000 nM. Besides, the share remaining at 1 h, 5 μM in series [4] turned out to be 100%. In addition, the “% hydrolyzed in human plasma after 6 h” value in series [4] (6 h) is given as 15.6%.

With `CC1=CC2Cc3nc4cc(Cl)ccc4c(NCCCCCCCCCNC(=O)c4ccc5c(c4)C(=O)c4ccccc4-5)c3C(C1)C2` (centres unmarked) [Compound 5, N-{9-[(3-Chloro-6,7,10,11-tetrahydro-9-methyl-7,11-methanocycloocta[b]quinolin-12-yl)amino]nonyl}-9-fluorenone-2-carboxamide], the results for the inhibition at 10 µM at tau aggregation and at Aβ42 aggregation were 68.9 ± 2.1% and 69.8 ± 1.2%, respectively. Also, the IC50 in series [1] stood at 5630 ± 10 nM; in series [3], 5.93 ± 0.26 nM. For the same compound, the LC50 at 72 h in series [2] is more than 100000 nM. Further, the “AChE vs. BChE selectivity” value in series [3] was 149. The share remaining at 1 h, 5 μM in series [4] amounted to 88.5%. Besides, in series [4] (6 h), the fraction remaining at 6 h, 5 μM stood at 80.4%.

Regarding `CC1=CC2Cc3nc4cc(Cl)ccc4c(NCCCCCCCCCNC(=O)c4ccc5c(c4)C(=O)c4ccccc4C5=O)c3C(C1)C2` (centres unmarked) [Compound 4, N-{9-[(3-Chloro-6,7,10,11-tetrahydro-9-methyl-7,11-methanocycloocta[b]quinolin-12-yl)amino]nonyl}anthraquinone-2-carboxamide], the inhibition at 10 µM at tau aggregation stood at 63 ± 3.5%; on Aβ42 aggregation it was 73.3 ± 3.6%. Besides, the figures for the IC50 in series [1] and in series [3] were 2890 ± 500 nM and 6.91 ± 0.77 nM, respectively. Besides, the LC50 at 72 h in series [2] is more than 100000 nM. Also, the “AChE vs. BChE selectivity” value in series [3] is reported as 181. The share remaining at 1 h, 5 μM in series [4] came out at 94.2%. Besides, in series [4] (6 h), the amount remaining at 6 h, 5 μM came out at 97.6%.
